Article PMC7278776, “Multidrug Resistance Modulation Activity of Silybin Derivatives and Their Anti-Inflammatory Potential” (Antioxidants, 2020)
Where two headings read alike, the source gives them in different places. Marks after values point to notes of the source that are not given here.

Legend:
[1] = system: nitric oxide (NO) production by LPS-stimulated macrophages (RAW 264.7); test: NO production by LPS-stimulated macrophages (Griess); format: cell-based, mouse; details: for IC50: Mus musculus, read-out: NO Production, concentration necessary to halve NO production (IC50)
Description: Immunomodulatory effect of tested compounds was determined as their ability to decrease nitric oxide (NO) production by LPS-stimulated macrophages (RAW 264.7, Sigma-Aldrich). Briefly, the cells were seeded into the 96-well plate at a density of 1 × 10^6 cells/mL in DMEM medium (supplemented with 2 mM L-glutamine and 1 × antibiotic antimycotic solution). After 48 h, the cells were washed with PBS. The MEM medium enriched with LPS (1 µg/mL) was added to the wells, together with the samples in the concentration range of 6.25–100 µM at a final volume of 100 µL. Indomethacin, a non-steroidal anti-inflammatory drug, was tested as a positive control in the concentration range 6.25–100 µM. After 24 h, the medium was used for the quantification of NO and inflammatory cytokines.
After 15 min, absorbance was recorded at 540 nm.

[2] = system: IL-6; test: IL-6 release by LPS-induced macrophages (ELISA); format: cell-based, mouse; details: for IL-6 (pg/mL): untreated LPS control 1148 ± 35; for IC50: Mus musculus, RAW264.7, RAW 264.7, LPS + compound 6 h, read-out: IL-6, concentration necessary to halve the release (IC50)
Description: To determine the level of inflammatory cytokine IL-6, macrophages were cultivated with LPS (1 µg/mL) and the tested compounds (7–50 µM) for 6 h. After incubation, the plates were centrifuged (1000× g; 10 min, 4 °C) and then the medium was removed and frozen to −80 °C. Prior to the detection, the samples were diluted in ELISA diluent in a 1:10 ratio. Production of the cytokine was determined by uncoated ELISA performed according to the manufacturer’s instructions.

[3] = system: A2780/DOX; test: Sensitization of the MDR cell line to doxorubicin; format: cell-based, human
Description: A multidrug resistant ovarian sub-line resistant to doxorubicin (A2780/DOX, Sigma-Aldrich) was cultivated in DMEM medium with 10% FBS and 1 × antibiotic antimycotic solution. Every other passage, doxorubicin at the final concentration of 0.1 µM was added to the culture medium to maintain the resistance of the cell line. To perform experiments, the cells were seeded at 1 × 10^5 cell/mL into the wells of a 96-well plate and incubated for 24 h. Afterwards, the cells were washed with PBS and fresh DMEM medium with tested compounds at 10, 20 and 30 µM were added to each well, except for the control wells. Subsequently, the cells were exposed to increasing concentrations of doxorubicin (0.6–20 µM) for 72 h. After incubation, the resazurin assay was performed as described above. The IC50 of doxorubicin was calculated for both the control and the samples and the fold change was counted up. […] The fold change lower than 1 means an antagonistic effect. (1) FOLD CHANGE=IC50 value of DOX cells treated with chemotherapeutic /IC50 value of DOX cells treated with chemotherapeutic and compound

[4] = system: ABCA2; test: ABCA2 mRNA expression (real-time PCR); format: cell-based, human; details: A2780/DOX, 10 µM combined with doxorubicin at IC25, 48 h
Description: (§1) The A2780/DOX cell line was seeded into 5 cm Petri dishes with DMEM medium at 1 × 10^5 cell/mL. After 24 h, the dishes were washed with PBS and new DMEM medium supplemented with doxorubicin (at concentration equal to IC25) and samples (10 µM) were added. After 48 h of treatment, the cells were washed with PBS and harvested using the standard trypsin-EDTA procedure. The harvested cells were centrifuged (3200× g; 10 min, 4 °C). The supernatant was discarded, and the pellets were washed with 1.5 mL of cooled PBS (5400× g; 10 min, 4 °C). The washing step was repeated with 1 mL of PBS and the cells were centrifuged again (10,000× g; 3 min, 4 °C). Afterwards, the pellets were resuspended in 1 mL of Trizol (Invitrogen, Carlsbad, CA, USA) and transferred into pre-cooled RNase-free microfuge tubes. The samples were stored at −80 °C.
(§2) A Quant-iT RiboGreen RNA Assay Kit (Invitrogen) was used to determine the RNA concentration using the Infinite M200 plate reader (Tecan, Männedor, Switzerland). The cDNA was prepared from 0.5 µg of total RNA using a RevertAid First Strand Synthesis cDNA Kit (MBI Fermentas, Vilnius, Lithuania). The amplification of the ubiquitin C gene fragment was used to determine the quality of cDNA.
(§3) The experiment was performed using the ViiA7 Real-Time polymerase chain reaction (PCR) System (Life Technologies, Camarillo, CA, USA) with a 384-well block. Before quantitative real-time PCR, the master mix was prepared by mixing 2 µL of 8 × diluted cDNA, 1.75 µL of RNase free water, 1 µL of 5 × HotFIREPol Probe quantitative PCR Mix Plus (Solis Biodyne, Tartu, Estonia) and 0.25 µL of specific 20 × TaqMan Gene Expression Assay (Life Technologies), giving 5 µL of final reaction volume. Cycling parameters were: initial hold at 50 °C for 2 min and denaturation at 95 °C for 10 min, followed by 45 cycles consisting of denaturation at 95 °C for 15 s and annealing/extension at 60 °C for 1 min. After each extension phase, the fluorescence values were acquired. Duplicate samples were used for measurement and samples with a standard deviation of duplicates > 1.0 cycle threshold (Ct) were re-analyzed. The real time PCR procedure was maintained according to MIQE (Minimum information for publication of quantitative real-time PCR experiments) guidelines. The software REST 2009 (Qiagen, Hilden, Germany) served to compare relative transcript levels of genes in the cell line.

[5] = system: ABCA5; test: ABCA5 mRNA expression (real-time PCR); format: cell-based, human; details: A2780/DOX
Description: as §1, §2, §3

[6] = system: ABCB2; test: ABCB2 mRNA expression (real-time PCR); format: cell-based, human; details: A2780/DOX, 10 µM combined with doxorubicin at IC25, 48 h
Description: as §1, §2, §3

[7] = system: ABCB6; test: ABCB6 mRNA expression (real-time PCR); format: cell-based, human; details: A2780/DOX
Description: as §1, with “After 24 h, the dishes were washed with PBS and new DMEM medium supplemented with doxorubicin (at concentration equal to IC25) and samples (10 µM) were added.” left out
as §2, §3

[8] = system: ABCB10; test: ABCB10 mRNA expression (real-time PCR); format: cell-based, human; details: A2780/DOX
Description: as §1, with “After 24 h, the dishes were washed with PBS and new DMEM medium supplemented with doxorubicin (at concentration equal to IC25) and samples (10 µM) were added.” left out
as §2, §3

[9] = system: ABCC5; test: ABCC5 mRNA expression (real-time PCR); format: cell-based, human; details: A2780/DOX, 10 µM combined with doxorubicin at IC25, 48 h
Description: as §1, §2, §3

[10] = 10 µM combined with doxorubicin at IC25, 48 h
[11] = 10 µM, 48 h, without doxorubicin
[12] = RAW264.7, RAW 264.7, LPS 1 µg/mL, 24 h

SMILES	IC50 ([1]; RAW264.7, 24 h)	IL-6 (pg/mL) ([2]; compound 7 µM)	IL-6 (pg/mL) ([2]; compound 15 µM)	IL-6 (pg/mL) ([2]; compound 50 µM)	Doxorubicin-sensitization rate (ratio of IC50 of doxorubicin and doxorubicin + tested compound) ([3]; compound 10 µM)	Doxorubicin-sensitization rate (ratio of IC50 of doxorubicin and doxorubicin + tested compound) ([3]; compound 20 µM)	Doxorubicin-sensitization rate (ratio of IC50 of doxorubicin and doxorubicin + tested compound) ([3]; compound 30 µM)	ABCA2 Expression Difference [4]	ABCA5 Expression Difference [5, 10]	ABCB2 Expression Difference [6]	ABCB6 Expression Difference [7, 10]	ABCB10 Expression Difference [8, 10]	ABCB10 Expression Difference [8, 11]	ABCC5 Expression Difference [9]	IC50 [1, 12]	IC50 [2]	Doxorubicin-sensitization rate (ratio of IC50 of doxorubicin and doxorubicin + tested compound) ([3]; compound 50 µM)	also measured
COc1cc([C@H]2Oc3cc(-c4oc5cc(O)cc(O)c5c(=O)c4O)ccc3O[C@@H]2CO)ccc1O [Dehydrosilybin A, 2,3-dehydrosilybin A]	23.2 ± 1.4 µM	292 ± 15 ^a pg/mL	79 ± 8 ^a pg/mL	0 ± 0 ^a pg/mL	(2.1 ± 0.3) ×	(2.5 ± 0.2) ×	(9.5 ± 0.7) ×	1.105	1.223	5.557	1.149	1.020	1.236	1.116	–	–	–	IL-6 (pg/mL) ([2]; compound 50 µM, listed as dehydrosilybin A): under the detection limit of the ELISA assay; IL-6 modulation effect higher in comparison with its diastereomeric mixture ([2]; vs dehydrosilybin AB): approximately 70%; Doxorubicin-sensitization rate (ratio of IC50 of doxorubicin and doxorubicin + tested compound) ([3]; compound 30 µM, listed as dehydrosilybin A): ~10 ×
COc1cc([C@@H]2Oc3cc([C@H]4Oc5cc(O)cc(O)c5C(=O)[C@@H]4O)ccc3O[C@H]2CO)ccc1O [Silybin B, silybin B]	–	297 ± 23 ^a pg/mL	166 ± 6 ^b pg/mL	37 ± 2 ^a pg/mL	(1.4 ± 0.1) ×	(1.5 ± 0.2) ×	(1.8 ± 0.1) ×	0.903	1.821	15.698	–	0.835	0.329	1.473	26 ± 3 µM	5.2 ± 0.2 µM	(3.3 ± 0.4) ×	ABCA2 Treated vs. Untreated [4]: DOWN; ABCA5 Expression Difference [5, 11]: 0.356; ABCA5 Treated vs. Untreated [5, 11]: DOWN; ABCB6 Expression Difference [7, 11]: 0.396; ABCB6 Treated vs. Untreated [7, 11]: DOWN; ABCB10 Treated vs. Untreated [8, 10]: DOWN; ABCB10 Treated vs. Untreated [8, 11]: DOWN
COc1cc(C2Oc3cc(-c4oc5cc(O)cc(O)c5c(=O)c4O)ccc3OC2CO)ccc1O (stereo not drawn) [Dehydrosilybin AB, 2,3-dehydrosilybin]	19.1 ± 0.2 µM	997 ± 41 ^d pg/mL	441 ± 19 ^d pg/mL	0 ± 0 ^a pg/mL	(2.4 ± 0.2) ×	–	–	1.046	1.254	5.145	1.262	1.119	1.589	1.288	–	–	–	IL-6 (pg/mL) ([2]; compound 50 µM, listed as dehydrosilybin AB): under the detection limit of the ELISA assay
COc1cc([C@@H]2Oc3cc(-c4oc5cc(O)cc(O)c5c(=O)c4O)ccc3O[C@H]2CO)ccc1O [Dehydrosilybin B, 2,3-dehydrosilybin B]	31.3 ± 2.4 µM	582 ± 19 ^c pg/mL	301 ± 9 ^c pg/mL	122 ± 3 ^b,c pg/mL	(2.0 ± 0.1) ×	–	–	1.078	1.707	9.286	1.343	1.221	1.186	1.385	–	–	–	immunomodulation effect lower compared to its diastereomeric mixture ([1]; NO production, vs dehydrosilybin AB): approximately 40%
COc1cc([C@H]2Oc3cc([C@H]4Oc5cc(O)cc(O)c5C(=O)[C@@H]4O)ccc3O[C@@H]2CO)ccc1O [Silybin A, silybin A]	–	422 ± 42 ^b pg/mL	271 ± 15 ^c pg/mL	125 ± 16 ^c pg/mL	(1.3 ± 0.1) ×	(1.6 ± 0.2) ×	(1.9 ± 0.1) ×	1.239	2.427	17.975	1.665	1.060	1.136	1.782	26.7 ± 1.6 µM	8.4 ± 0.3 µM	(3.6 ± 0.3) ×	–
